Like-named read-outs stand apart in the source and are kept apart here.
Assays:
human FABP4 (huFABP4) = human FABP4 (huFABP4) (Homo sapiens (Human), UniProt P15090); assay: Tb TR-FRET assay, binding of Bodipy labeled fatty acid to His6 tagged huFABP4; conditions: read-out: IC50 h-fabp4-ecoli-r
human FABP5 (huFABP5) = human FABP5 (huFABP5) (Homo sapiens (Human), UniProt Q01469); assay: Tb TR-FRET assay, binding of Bodipy labeled fatty acid to His6 tagged huFABP5; conditions: read-out: IC50 h-fabp5-ecoli-r
Sequence of human FABP5 (huFABP5) (Q01469 whole entry): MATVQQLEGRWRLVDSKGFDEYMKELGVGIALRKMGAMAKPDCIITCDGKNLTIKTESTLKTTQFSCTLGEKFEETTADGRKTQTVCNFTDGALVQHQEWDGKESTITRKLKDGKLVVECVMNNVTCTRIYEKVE

[1] = 50 nM FABP protein, […] Bodipy labeled fatty acid

Sequence of human FABP4 (huFABP4) (P15090 whole entry): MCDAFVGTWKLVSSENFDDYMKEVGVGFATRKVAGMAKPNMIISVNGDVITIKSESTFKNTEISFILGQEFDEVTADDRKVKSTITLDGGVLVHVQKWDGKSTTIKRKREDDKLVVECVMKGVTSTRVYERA

| SMILES | IC50 (human FABP4 (huFABP4); [1]) | IC50 (human FABP5 (huFABP5); [1]) | IC50 (human FABP4 (huFABP4)) | IC50 (human FABP5 (huFABP5)) |
| --- | --- | --- | --- | --- |
| O=C(O)[C@H]1CCCN1C(=O)Nc1cc(Cl)cc(C2=CCCCC2)c1-c1ccccc1 [Example 26, (R)-1-[4-chloro-6-(cyclohexen-1-yl)-biphenyl-2-ylcarbamoyl]pyrrolidine-2-carboxylic acid] | 530 nM | 70 nM |  |  |
| O=C(O)[C@H]1CCCN1C(=O)Nc1cc(OC(F)(F)F)ccc1-c1ccccc1 [Example 17, (R)-1-(4-(trifluoromethoxy)biphenyl-2-ylcarbamoyl)pyrrolidine-2-carboxylic acid] | 5710 nM | > 50000 nM |  |  |
| O=C(O)[C@H]1CCN1C(=O)Nc1cc(Cl)ccc1-c1cc(F)cc(F)c1 [Example 39, (R)-1-(4-chloro-3′,5′-difluorobiphenyl-2-ylcarbamoyl)azetidine-2-carboxylic acid] | 60 nM | > 50000 nM |  |  |
| COc1cc(Cl)cc(NC(=O)N2CC[C@@H]2C(=O)O)c1-c1ccc(F)cc1 [Example 64, (R)-1-(4-chloro-4′-fluoro-6-methoxybiphenyl-2-ylcarbamoyl)azetidine-2-carboxylic acid] | 20 nM | 6660 nM |  |  |
| O=C(O)[C@H]1CCN1C(=O)Nc1cc(Cl)ccc1-c1cccc(F)c1 [Example 38, (R)-1-(4-chloro-3′-fluorobiphenyl-2-ylcarbamoyl)azetidine-2-carboxylic acid] | 30 nM | > 50000 nM |  |  |
| O=C(O)[C@H]1CCCN1C(=O)Nc1cc(Cl)ccc1-c1cccc(Cl)c1 [Example 55, (R)-1-(3′,4-dichlorobiphenyl-2-ylcarbamoyl)pyrrolidine-2-carboxylic acid] | 770 nM | > 50000 nM |  |  |
| O=C(O)[C@H]1CCN1C(=O)Nc1cc(Cl)ccc1-c1ccc(F)cc1 [Example 29, (R)-1-(4-chloro-4′-fluorobiphenyl-2-ylcarbamoyl)azetidine-2-carboxylic acid] | 30 nM | > 50000 nM |  |  |
| O=C(O)[C@H]1CCCN1C(=O)Nc1cc(Cl)ccc1-c1ccccc1 [Example 10, (R)-1-(4-chlorobiphenyl-2-ylcarbamoyl)pyrrolidine-2-carboxylic acid] | 120 nM | > 1440 nM |  |  |
| Cc1ccccc1-c1ccc(Cl)cc1NC(=O)N1CCC[C@@H]1C(=O)O [Example 61, (R)-1-(4-chloro-2′-methylbiphenyl-2-ylcarbamoyl)pyrrolidine-2-carboxylic acid] | 2750 nM | > 50000 nM |  |  |
| O=C(O)[C@H]1CCCN1C(=O)Nc1ccc(Cl)cc1-c1ccccc1 [Example 2, (R)-1-(5-chlorobiphenyl-2-ylcarbamoyl)pyrrolidine-2-carboxylic acid] | 2040 nM | 21000 nM |  |  |
| O=C(O)[C@H]1CCCN1C(=O)Nc1c(F)cccc1-c1ccccc1 [Example 11, (R)-1-(3-fluorobiphenyl-2-ylcarbamoyl)pyrrolidine-2-carboxylic acid] | 860 nM | > 50000 nM |  |  |
| O=C(O)C1CCCCN1C(=O)Nc1ccccc1-c1ccccc1 (stereo not drawn) [Example 1, 1-(Biphenyl-2-ylcarbamoyl)-piperidine-2-carboxylic acid] | 8060 nM | > 50000 nM |  |  |
| O=C(O)[C@H]1CCCN1C(=O)Nc1cc(Cl)ccc1-c1ccc(F)cc1 [Example 54, (R)-1-(4-chloro-4′-fluorobiphenyl-2-ylcarbamoyl)pyrrolidine-2-carboxylic acid] | 60 nM | > 29600 nM |  |  |
| O=C(O)[C@H]1CCN1C(=O)Nc1cc(Cl)ccc1-c1ccccc1F [Example 37, (R)-1-(4-chloro-2′-fluorobiphenyl-2-ylcarbamoyl)azetidine-2-carboxylic acid] | 30 nM | > 50000 nM |  |  |
| NC(=O)c1cccc(-c2ccc(Cl)cc2NC(=O)N2CCC[C@@H]2C(=O)O)c1 [Example 56, (R)-1-(3′-carbamoyl-4-chlorobiphenyl-2-ylcarbamoyl)pyrrolidine-2-carboxylic acid] | 11100 nM | > 50000 nM |  |  |
| O=C(O)[C@H]1CCN1C(=O)Nc1cc(Cl)ccc1-c1ccccc1 [Example 12, (R)-1-(4-chlorobiphenyl-2-ylcarbamoyl)azetidine-2-carboxylic acid] | 20 nM | > 50000 nM |  |  |
| O=C(O)[C@H]1CCN1C(=O)Nc1cc(Cl)c(F)cc1-c1ccccc1 [Example 30, (R)-1-(4-chloro-5-fluorobiphenyl-2-ylcarbamoyl)azetidine-2-carboxylic acid] | 20 nM | 40100 nM |  |  |
| CCc1ccc(-c2ccccc2)c(NC(=O)N2CCC[C@@H]2C(=O)O)c1 [Example 62, (R)-1-(4-ethylbiphenyl-2-ylcarbamoyl)pyrrolidine-2-carboxylic acid] | 1860 nM | > 50000 nM |  |  |
| Cc1cc(-c2ccccc2)c(NC(=O)N2CC[C@@H]2C(=O)O)cc1Cl [Example 31, (R)-1-(4-chloro-5-methylbiphenyl-2-ylcarbamoyl)azetidine-2-carboxylic acid] | 30 nM | 5080 nM |  |  |
| O=C(O)[C@H]1CCCN1C(=O)Nc1cc(C(F)(F)F)ccc1-c1ccccc1 [Example 13, (R)-1-(4-(trifluoromethyl)biphenyl-2-ylcarbamoyl)pyrrolidine-2-carboxylic acid] | 3950 nM | > 50000 nM |  |  |

| SMILES | IC50 (human FABP4 (huFABP4); [1]) | IC50 (human FABP5 (huFABP5); [1]) | IC50 (human FABP4 (huFABP4)) | IC50 (human FABP5 (huFABP5)) |
| --- | --- | --- | --- | --- |
| N#Cc1cc(Cl)cc(NC(=O)N2CCC[C@@H]2C(=O)O)c1-c1ccccc1 [Example 25, (R)-1-(4-chloro-6-cyanobiphenyl-2-ylcarbamoyl)pyrrolidine-2-carboxylic acid] | 190 nM | 15000 nM |  |  |
| O=C(O)[C@H]1CCN1C(=O)Nc1cc(Cl)ccc1-c1cccc(F)c1F [Example 36, (R)-1-(4-chloro-2′,3′-difluorobiphenyl-2-ylcarbamoyl)azetidine-2-carboxylic acid] | 60 nM | > 50000 nM |  |  |
| O=C(O)[C@@H]1[C@H]2C[C@H]2CN1C(=O)Nc1ccccc1-c1ccccc1 (racemic) [Example 9, (1SR,2SR,5RS)-3-(Biphenyl-2-ylcarbamoyl)-3-aza-bicyclo[3.1.0]hexane-2-carboxylic acid] |  |  | 9100 nM | > 50000 nM |
| COc1ccc(-c2ccc(Cl)cc2NC(=O)N2CCC[C@@H]2C(=O)O)cc1 [Example 60, (R)-1-(4-chloro-4′-methoxybiphenyl-2-ylcarbamoyl)pyrrolidine-2-carboxylic acid] | 3450 nM | > 50000 nM |  |  |
| O=C(Nc1ccccc1-c1ccccc1)N1CCCC1(C(=O)O)c1ccccc1 (stereo not drawn) [Example 6, 1-(Biphenyl-2-ylcarbamoyl)-2-phenyl-pyrrolidine-2-carboxylic acid] | 620 nM | > 50000 nM |  |  |
| O=C(O)[C@H]1CCCN1C(=O)Nc1cc(Cl)ccc1Oc1ccccc1 [Example 5, (R)-1-(5-chloro-2-phenoxyphenylcarbamoyl)pyrrolidine-2-carboxylic acid] | 7410 nM | > 50000 nM |  |  |
| O=C(O)[C@H]1CCCN1C(=O)Nc1ccccc1Cc1ccccc1 [Example 4, (R)-1-(2-benzylphenylcarbamoyl)pyrrolidine-2-carboxylic acid] | 3340 nM | > 50000 nM |  |  |
| O=C(O)[C@H]1CCCN1C(=O)Nc1cc(Cl)ccc1-c1ccsc1 [Example 52, (R)-1-(5-chloro-2-(thiophen-3-yl)phenylcarbamoyl)pyrrolidine-2-carboxylic acid] | 60 nM | > 10400 nM |  |  |
| O=C(O)[C@H]1CCCN1C(=O)Nc1cc(Cl)ccc1-c1ccc(Cl)cc1 [Example 59, (R)-1-(4,4′-dichlorobiphenyl-2-ylcarbamoyl)pyrrolidine-2-carboxylic acid] | 2080 nM | > 50000 nM |  |  |
| O=C(O)[C@H]1CCCN1C(=O)Nc1ccccc1Oc1ccccc1 [Example 3, (R)-1-(2-phenoxyphenylcarbamoyl)pyrrolidine-2-carboxylic acid] | 11700 nM | > 50000 nM |  |  |
| O=C(O)[C@H]1CCCN1C(=O)Nc1cc(Cl)cc(-c2ccccc2)c1-c1ccccc1 [Example 19, (R)-1-(5′-Chloro-[1,1′;2′,1″]terphenyl-3′-ylcarbamoyl)-pyrrolidine-2-carboxylic acid] | 500 nM | 1220 nM |  |  |
| O=C(O)[C@H]1CCCN1C(=O)Nc1ccsc1-c1ccccc1 [Example 24, (R)-1-(2-phenylthiophen-3-ylcarbamoyl)pyrrolidine-2-carboxylic acid] | 1670 nM | > 50000 nM |  |  |
| O=C(O)[C@H]1CCCN1C(=O)Nc1cc(Cl)ccc1C1=CCCCC1 [Example 57, (R)-1-[5-chloro-2-(cyclohexen-1-yl)phenylcarbamoyl]pyrrolidine-2-carboxylic acid] | 1100 nM | > 50000 nM |  |  |
| O=C(O)[C@H]1CCN1C(=O)Nc1ccccc1-c1ccccc1 [Example 28, (R)-1-(biphenyl-2-ylcarbamoyl)azetidine-2-carboxylic acid] | 80 nM | > 50000 nM |  |  |
| N#Cc1ccc(-c2ccccc2)c(NC(=O)N2CCC[C@@H]2C(=O)O)c1 [Example 20, (R)-1-(4-cyanobiphenyl-2-ylcarbamoyl)pyrrolidine-2-carboxylic acid] | 10500 nM | > 50000 nM |  |  |
| C=CCc1cc(Cl)cc(NC(=O)N2CCC[C@@H]2C(=O)O)c1-c1ccccc1 [Example 23, (R)-1-(6-allyl-4-chlorobiphenyl-2-ylcarbamoyl)pyrrolidine-2-carboxylic acid] | 110 nM | 1290 nM |  |  |
| O=C(O)[C@H]1CCN1C(=O)Nc1cc(Cl)ccc1-c1ccc(F)cc1F [Example 63, (R)-1-(4-chloro-2′,4′-difluorobiphenyl-2-ylcarbamoyl)azetidine-2-carboxylic acid] | 30 nM | > 50000 nM |  |  |
| O=C(O)[C@H]1CCCN1C(=O)Nc1c(-c2ccccc2)sc2ccccc12 [Example 21, (R)-1-(2-phenylbenzo[b]thiophen-3-ylcarbamoyl)pyrrolidine-2-carboxylic acid] | 670 nM | > 50000 nM |  |  |
| O=C(O)[C@@H]1CCN1C(=O)Nc1cc(Cl)ccc1-c1ccccc1 [Example 27, (S)-1-(4-chlorobiphenyl-2-ylcarbamoyl)azetidine-2-carboxylic acid] | 1220 nM | > 50000 nM |  |  |
